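1) Cells in 96-well plates. 2) Compound, 48 h, 5 concentrations. 3) Linear interpolation between surrounding doses. 4) Unreached endpoint = highest concentration. GI50 marks 50% less growth.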 The source made the active and inactive calls. Cut-off read from the data, not from the text of the source: active = GI50 up to about 1.1 µM and inactive = higher.
Key:
Experiment in all cases: NCI anticancer screen, dose series, 48 h
DU-145 = system: DU-145
Hs-578T = system: Hs-578T
786-0 = system: 786-0
SNB-19 = system: SNB-19
EKVX = system: EKVX
K562 = system: K562
HT-29 = system: HT-29
HCT-15 = system: HCT-15
KM12 = system: KM12
SK-MEL-5 = system: SK-MEL-5
SK-MEL-2 = system: SK-MEL-2
A498 = system: A498
PC-3 = system: PC-3
NCI-H522 = system: NCI-H522
NCI/ADR-RES = system: NCI/ADR-RES
UACC-257 = system: UACC-257
CCRF-CEM = system: CCRF-CEM
SF-295 = system: SF-295
LOX IMVI = system: LOX IMVI
RPMI-8226 = system: RPMI-8226
MDA-MB-435 = system: MDA-MB-435
RXF 393 = system: RXF 393
MDA-MB-231 = system: MDA-MB-231
HCC 2998 = system: HCC 2998
COLO 205 = system: COLO 205
NCI-H226 = system: NCI-H226
UO-31 = system: UO-31
OVCAR-8 = system: OVCAR-8
M14 = system: M14
MOLT-4 = system: MOLT-4
BT-549 = system: BT-549
ACHN = system: ACHN
SN12C = system: SN12C
UACC-62 = system: UACC-62
OVCAR-3 = system: OVCAR-3
MDA-N = system: MDA-N
NCI-H460 = system: NCI-H460
CAKI-1 = system: CAKI-1
Malme-3M = system: Malme-3M
U-251 = system: U-251
SF-268 = system: SF-268
HL-60 = system: HL-60
OVCAR-5 = system: OVCAR-5
SK-OV-3 = system: SK-OV-3
SR = system: SR
A549 = system: A549
NCI-H23 = system: NCI-H23
SW-620 = system: SW-620
TK-10 = system: TK-10
HCT-116 = system: HCT-116
IGROV-1 = system: IGROV-1
HOP-62 = system: HOP-62
OVCAR-4 = system: OVCAR-4
HOP-92 = system: HOP-92
SK-MEL-28 = system: SK-MEL-28
MCF7 = system: MCF7
T47D = system: T47D
SNB-75 = system: SNB-75
SF-539 = system: SF-539

With CC1=NN(c2ccc(S(=O)(=O)O)cc2)C2(C1)C(Cl)C(=O)N2c1nc2ccccc2s1 (stereo not drawn) the GI50 (DU-145) was > 100 µM (inactive), the GI50 (Hs-578T) was > 100 µM (inactive) and the GI50 (786-0) was > 100 µM (inactive). The GI50 (SNB-19) was > 100 µM (inactive), the GI50 (EKVX) was 55.7 µM (inactive) and the GI50 (K562) was > 100 µM (inactive). The GI50 (HT-29) was > 100 µM (inactive), the GI50 (HCT-15) was over 100 µM and the GI50 (KM12) was > 100 µM (inactive). The GI50 (SK-MEL-5) was > 100 µM (inactive), the GI50 (SK-MEL-2) was 92.5 µM (inactive) and the GI50 (A498) was > 100 µM (inactive). The GI50 (PC-3) was > 100 µM (inactive), the GI50 (NCI-H522) was > 100 µM (inactive) and the GI50 (NCI/ADR-RES) was > 100 µM (inactive). For the same molecule, the GI50 (UACC-257) was > 100 µM (inactive), the GI50 (CCRF-CEM) was > 100 µM (inactive) and the GI50 (SF-295) was > 100 µM (inactive). For the same molecule, the GI50 (LOX IMVI) was 57.8 µM (inactive), the GI50 (RPMI-8226) was > 100 µM (inactive) and the GI50 (MDA-MB-435) was > 100 µM (inactive). The GI50 (RXF 393) was > 100 µM (inactive), the GI50 (MDA-MB-231) was > 100 µM (inactive) and the GI50 (HCC 2998) was > 100 µM (inactive). The GI50 (COLO 205) was > 100 µM (inactive), the GI50 (NCI-H226) was 21.4 µM (inactive) and the GI50 (UO-31) was > 100 µM (inactive). For the same molecule, the GI50 (OVCAR-8) was > 100 µM (inactive), the GI50 (M14) was > 100 µM (inactive) and the GI50 (MOLT-4) was > 100 µM (inactive). For the same molecule, the GI50 (BT-549) was > 100 µM (inactive), the GI50 (ACHN) was > 100 µM (inactive) and the GI50 (SN12C) was > 100 µM (inactive). For the same molecule, the GI50 (UACC-62) was 95.9 µM (inactive), the GI50 (OVCAR-3) was 68.4 µM (inactive) and the GI50 (MDA-N) was > 100 µM (inactive). The GI50 (NCI-H460) was > 100 µM (inactive), the GI50 (CAKI-1) was > 100 µM (inactive) and the GI50 (Malme-3M) was > 100 µM (inactive). The GI50 (U-251) was > 100 µM (inactive), the GI50 (SF-268) was > 100 µM (inactive) and the GI50 (HL-60) was > 100 µM (inactive). For the same molecule, the GI50 (OVCAR-5) was > 100 µM (inactive), the GI50 (SK-OV-3) was > 100 µM (inactive) and the GI50 (SR) was > 100 µM (inactive). The GI50 (A549) was > 100 µM (inactive), the GI50 (NCI-H23) was > 100 µM (inactive) and the GI50 (SW-620) was > 100 µM (inactive). The GI50 (TK-10) was > 100 µM (inactive), the GI50 (HCT-116) was > 100 µM (inactive) and the GI50 (IGROV-1) was > 100 µM (inactive). For the same molecule, the GI50 (HOP-62) was 91.2 µM (inactive), the GI50 (OVCAR-4) was > 100 µM (inactive) and the GI50 (HOP-92) was > 100 µM (inactive). For the same molecule, the GI50 (SK-MEL-28) was > 100 µM (inactive), the GI50 (MCF7) was > 100 µM (inactive) and the GI50 (T47D) was 59.8 µM (inactive). The GI50 (SNB-75) was > 100 µM (inactive).

For C=C1C(=O)OC2C1CC(O)/C(C)=C\CCC1(C)OC21 (stereo not drawn), the GI50 (DU-145) was 32.8 µM (inactive), the GI50 (Hs-578T) was 23.5 µM (inactive) and the GI50 (786-0) was 31 µM (inactive). The GI50 (SNB-19) was 48.1 µM (inactive), the GI50 (EKVX) was 36.7 µM (inactive) and the GI50 (SF-539) was 34.2 µM (inactive). The GI50 (HT-29) was 27.5 µM (inactive), the GI50 (HCT-15) was 16.3 µM and the GI50 (KM12) was 32.9 µM (inactive). For the same molecule, the GI50 (SK-MEL-5) was 21 µM (inactive), the GI50 (SK-MEL-2) was 17.5 µM (inactive) and the GI50 (A498) was 43 µM (inactive). The GI50 (PC-3) was 23.2 µM (inactive), the GI50 (NCI-H522) was 14.8 µM (inactive) and the GI50 (NCI/ADR-RES) was 22.7 µM (inactive). For the same molecule, the GI50 (UACC-257) was 34 µM (inactive), the GI50 (CCRF-CEM) was 25.4 µM (inactive) and the GI50 (SF-295) was 30.3 µM (inactive). The GI50 (LOX IMVI) was 27 µM (inactive), the GI50 (RPMI-8226) was 21.4 µM (inactive) and the GI50 (MDA-MB-435) was 27.2 µM (inactive). The GI50 (RXF 393) was 16.8 µM (inactive), the GI50 (MDA-MB-231) was 15.5 µM (inactive) and the GI50 (HCC 2998) was 35.1 µM (inactive). The GI50 (COLO 205) was 29.8 µM (inactive), the GI50 (UO-31) was 22.9 µM (inactive) and the GI50 (OVCAR-8) was 33.8 µM (inactive). The GI50 (M14) was 23.1 µM (inactive), the GI50 (MOLT-4) was 7.35 µM (inactive) and the GI50 (BT-549) was 23 µM (inactive). The GI50 (ACHN) was 39.5 µM (inactive), the GI50 (UACC-62) was 21.2 µM (inactive) and the GI50 (OVCAR-3) was 17.4 µM (inactive). For the same molecule, the GI50 (MDA-N) was 19.1 µM (inactive), the GI50 (NCI-H460) was 31.8 µM (inactive) and the GI50 (Malme-3M) was 19.2 µM (inactive). For the same molecule, the GI50 (U-251) was 20.3 µM (inactive), the GI50 (SF-268) was 25.1 µM (inactive) and the GI50 (HL-60) was 23.7 µM (inactive). The GI50 (OVCAR-5) was 23.8 µM (inactive), the GI50 (SK-OV-3) was 49.9 µM (inactive) and the GI50 (SR) was 20.2 µM (inactive). For the same molecule, the GI50 (A549) was 35.5 µM (inactive), the GI50 (NCI-H23) was 31.3 µM (inactive) and the GI50 (SW-620) was 38.8 µM (inactive). For the same molecule, the GI50 (TK-10) was 39.3 µM (inactive), the GI50 (HCT-116) was 29.8 µM (inactive) and the GI50 (IGROV-1) was 32.5 µM (inactive). For the same molecule, the GI50 (HOP-62) was 20 µM (inactive), the GI50 (OVCAR-4) was 25.6 µM (inactive) and the GI50 (HOP-92) was 34.6 µM (inactive). For the same molecule, the GI50 (SK-MEL-28) was 33.3 µM (inactive), the GI50 (MCF7) was 28.2 µM (inactive) and the GI50 (T47D) was 46.1 µM (inactive). The GI50 (SNB-75) was 39.8 µM (inactive).

Reference: ChEMBL document CHEMBL1201862, “PubChem BioAssay data set” (2004)
